Measured values published in patent EP4553080A1, “NUCLEOSIDE DERIVATIVES AS ANTIVIRAL AGENTS AGAINST CORONAVIRUSES” (Ustav Organicke Chemie a Biochemie AV CR, v.v.i., priority 2023, dated 2025).
pIC50: −log10 of the molar value.

Each compound was assayed against nsp14 methyltransferase from SARS-CoV-2 (Severe acute respiratory syndrome coronavirus 2, UniProt P0DTD1) (assay: Nsp14 MTase activity inhibition in vitro (EchoMS assay)). Settings: recombinant nsp14 protein expressed in E. coli; dose-response curve.
Assay type: biochemical

SMILES	pIC50
Cc1scc(-c2ccccc2)c1CSC[C@H]1O[C@@H](n2ccc3c(N)ncnc32)[C@H](O)[C@@H]1O [Compound 52c, (2R,3R,4S,5S)-2-(4-Amino-7H-pyrrolo[2,3-d]pyrimidin-7-yl)-5-((((2-methyl-4-phenylthiophen-3-yl)methyl)thio)methyl)tetrahydrofuran-3,4-diol]	5.70 to 6.30
Cc1ncnc(-c2ccccc2)c1CSC[C@H]1O[C@@H](n2ccc3c(N)ncnc32)[C@H](O)[C@@H]1O [Compound 56c, (2R,3R,4S,5S)-2-(4-Amino-7H-pyrrolo[2,3-d]pyrimidin-7-yl)-5-((((4-methyl-6-phenylpyrimidin-5-yl)methyl)thio)methyl)tetrahydrofuran-3,4-diol]	6.30 to 7.00
Cc1noc(-c2ccccc2)c1CSC[C@H]1O[C@@H](n2cc(I)c3c(N)ncnc32)[C@H](O)[C@@H]1O [Compound 123, (2R,3R,4S,5S)-2-(4-Amino-5-iodo-7H-pyrrolo[2,3-d]pyrimidin-7-yl)-5-((((3-methyl-5-phenylisoxazol-4-yl)methyl)thio)methyl)tetrahydrofuran-3,4-diol]	7.00 to 7.52
Cc1noc(-c2ccccc2)c1CSC[C@H]1O[C@@H](n2cc(C#Cc3cncnc3)c3c(N)ncnc32)[C@H](O)[C@@H]1O [Compound 172b]	7.52 to 8.00
Cc1noc(-c2ccccc2)c1CSC[C@H]1O[C@@H](n2nc(CCCC#N)c3c(N)ncnc32)[C@H](O)[C@@H]1O [Compound 223b, 4-(4-Amino-1-((2R,3R,4S,5S)-3,4-dihydroxy-5-((((3-methyl-5-phenylisoxazol-4-yl)methyl)thio)methyl)tetrahydrofuran-2-yl)-1H-pyrazolo[3,4-d]pyrimidin-3-yl)butanenitrile]	7.00 to 7.52
Cc1noc(-c2ccccc2)c1CSC[C@H]1O[C@@H](n2cc(CC3CCCCC3)c3c(N)ncnc32)[C@H](O)[C@@H]1O [Compound 135b, (2R,3R,4S,5S)-2-(4-Amino-5-(cyclohexylmethyl)-7H-pyrrolo[2,3-d]pyrimidin-7-yl)-5-((((3-methyl-5-phenylisoxazol-4-yl)methyl)thio)methyl)tetrahydrofuran-3,4-diol]	5.70 to 6.30
Cn1cnc(-c2ccccc2)c1CSC[C@H]1O[C@@H](n2cc(I)c3c(N)ncnc32)[C@H](O)[C@@H]1O [Compound 244, (2R,3R,4S,5S)-2-(4-Amino-5-iodo-7H-pyrrolo[2,3-d]pyrimidin-7-yl)-5-((((1-methyl-4-phenyl-1H-imidazol-5-yl)methyl)thio)methyl)tetrahydrofuran-3,4-diol]	7.52 to 8.00
Cc1ccc(-c2onc(C)c2CSC[C@H]2O[C@@H](n3ccc4c(N)ncnc43)[C@H](O)[C@@H]2O)cc1C [Compound 95c, (2R,3R,4S,5S)-2-(4-Amino-7H-pyrrolo[2,3-d]pyrimidin-7-yl)-5-((((5-(3,4-dimethylphenyl)-3-methylisoxazol-4-yl)methyl)thio)methyl)tetrahydrofuran-3,4-diol]	7.52 to 8.00
Cc1ncnc(-c2ccccc2)c1CSC[C@H]1O[C@@H](n2cc(I)c3c(N)ncnc32)[C@H](O)[C@@H]1O [Compound 246, (2R,3R,4S,5S)-2-(4-Amino-5-iodo-7H-pyrrolo[2,3-d]pyrimidin-7-yl)-5-((((4-methyl-6-phenylpyrimidin-5-yl)methyl)thio)methyl)tetrahydrofuran-3,4-diol]	7.52 to 8.00
Cc1noc(-c2cscn2)c1CSC[C@H]1O[C@@H](n2ccc3c(N)ncnc32)[C@H](O)[C@@H]1O [Compound 101c, (2R,3R,4S,5S)-2-(4-Amino-7H-pyrrolo[2,3-d]pyrimidin-7-y1)-5-((((3-methyl-5-(thiazol-4-y1)isoxazo1-4-yl)methyl)thio)methyl)tetrahydrofuran-3,4-diol]	7.00 to 7.52
Cc1noc(-c2ccccc2)c1CSC[C@H]1O[C@@H](n2cc(/C=C/c3ccccc3)c3c(N)ncnc32)[C@H](O)[C@@H]1O [Compound 181b, (2R,3R,4S,5S)-2-(4-Amino-5-((E)-styryl)-7H-pyrrolo[2,3-d]pyrimidin-7-yl)-5-((((3-methyl-5-phenylisoxazol-4-yl)methyl)thio)methyl)tetrahydrofuran-3,4-diol]	6.30 to 7.00
Cc1noc(-c2ccccc2)c1CSC[C@H]1O[C@@H](n2cc(-c3ccc(C#N)cc3)c3c(N)ncnc32)[C@H](O)[C@@H]1O [Compound 143b, 4-(4-Amino-7-((2R,3R,4S,5S)-3,4-dihydroxy-5-((((3-methyl-5-phenylisoxazol-4-yl)methyl)thio)methyl)tetrahydrofuran-2-yl)-7H-pyrrolo[2,3-d]pyrimidin-5-yl)benzonitrile]	7.52 to 8.00
Nc1ncnc2c1ccn2[C@@H]1O[C@H](CSCc2c(-c3ccccc3)noc2C2CC2)[C@@H](O)[C@H]1O [Compound 108c, (2R,3R,4S,5S)-2-(4-Amino-7H-pyrrolo[2,3-d]pyrimidin-7-yl)-5-((((5-cyclopropyl-3-phenylisoxazol-4-yl)methyl)thio)methyl)tetrahydrofuran-3,4-diol]	6.30 to 7.00
Cc1ccnc(-c2ccccc2)c1CSC[C@H]1O[C@@H](n2ccc3c(N)ncnc32)[C@H](O)[C@@H]1O [Compound 62c, (2R,3R,4S,5S)-2-(4-Amino-7H-pyrrolo[2,3-d]pyrimidin-7-yl)-5-((((4-methyl-2-phenylpyridin-3-yl)methyl)thio)methyl)tetrahydrofuran-3,4-diol]	5.70 to 6.30
Cn1cnc(-c2ccccc2)c1CSC[C@H]1O[C@@H](n2cc(C#Cc3cncnc3)c3c(N)ncnc32)[C@H](O)[C@@H]1O [Compound 237c, (2R,3R,4S,5S)-2-(4-Amino-5-(pyrimidin-5-ylethynyl)-7H-pyrrolo[2,3-d]pyrimidin-7-yl)-5-((((1-methyl-4-phenyl-1H-imidazol-5-yl)methyl)thio)methyl)tetrahydrofuran-3,4-diol]	7.00 to 7.52
Cc1noc(-c2ccccc2)c1CSC[C@H]1O[C@@H](n2cc(-c3ccc(C(F)(F)F)cc3)c3c(N)ncnc32)[C@H](O)[C@@H]1O [Compound 145b]	6.30 to 7.00
Cc1cc(C#N)cc(C)c1-c1cn([C@@H]2O[C@H](CSCc3c(C)noc3-c3ccccc3)[C@@H](O)[C@H]2O)c2ncnc(N)c12 [Compound 150, 4-(4-Amino-7-((2R,3R,4S,5S)-3,4-dihydroxy-5-((((3-methyl-5-phenylisoxazol-4-yl)methyl)thio)methyl)tetrahydrofuran-2-yl)-7H-pyrrolo[2,3-d]pyrimidin-5-yl)-3,5-dimethylbenzonitrile]	7.52 to 8.00
Cc1noc(-c2ccccc2)c1CSC[C@H]1O[C@@H](n2cc(-c3cncn3C)c3c(N)ncnc32)[C@H](O)[C@@H]1O [Compound 155, (2R,3R,4S,5S)-2-(4-Amino-5-(1-methyl-1H-imidazol-5-yl)-7H-pyrrolo[2,3-d]pyrimidin-7-yl)-5-((((3-methyl-5-phenylisoxazol-4-yl)methyl)thio)methyl)tetrahydrofuran-3,4-diol]	7.00 to 7.52
CCCCCc1cn([C@@H]2O[C@H](CSCc3c(C)noc3-c3ccccc3)[C@@H](O)[C@H]2O)c2ncnc(N)c12 [Compound 132b, (2R,3R,4S,5S)-2-(4-Amino-5-pentyl-7H-pyrrolo[2,3-d]pyrimidin-7-yl)-5-((((3-methyl-5-phenylisoxazol-4-yl)methyl)thio)methyl)tetrahydrofuran-3,4-diol]	5.70 to 6.30
Cc1noc(-c2ccccc2)c1CSC[C@H]1O[C@@H](n2cc(C#Cc3ccc(C(N)=O)cc3)c3c(N)ncnc32)[C@H](O)[C@@H]1O [Compound 169b, 4-((4-Amino-7-((2R,3R,4S,5S)-3,4-dihydroxy-5-((((3-methyl-5-phenylisoxazol-4-yl)methyl)thio)methyl)tetrahydrofuran-2-yl)-7H-pyrrolo[2,3-d]pyrimidin-5-yl)ethynyl)benzamide]	7.00 to 7.52
Cc1nsc(-c2ccccc2)c1CSC[C@H]1O[C@@H](n2cc(C#Cc3cncnc3)c3c(N)ncnc32)[C@H](O)[C@@H]1O [Compound 238c, (2R,3R,4S,5S)-2-(4-Amino-5-(pyrimidin-5-ylethynyl)-7H-pyrrolo[2,3-d]pyrimidin-7-yl)-5-((((3-methyl-5-phenylisothiazol-4-yl)methyl)thio)methyl)tetrahydrofuran-3,4-diol]	7.00 to 7.52
Cc1ccc(-c2onc(C)c2CSC[C@H]2O[C@@H](n3cc(-c4ccc(C#N)cc4)c4c(N)ncnc43)[C@H](O)[C@@H]2O)cc1C [Compound 235b, 4-(4-Amino-7-((2R,3R,4S,5S)-5-((((5-(3,4-dimethylphenyl)-3-methylisoxazol-4-yl)methyl)thio)methyl)-3,4-dihydroxytetrahydrofuran-2-yl)-7H-pyrrolo[2,3-d]pyrimidin-5-yl)benzonitrile]	7.00 to 7.52
Cn1cnc(-c2ccccc2)c1CSC[C@H]1O[C@@H](n2ccc3c(N)ncnc32)[C@H](O)[C@@H]1O [Compound 49c]	6.30 to 7.00
Cn1ncc(-c2ccccc2)c1CSC[C@H]1O[C@@H](n2ccc3c(N)ncnc32)[C@H](O)[C@@H]1O [Compound 60c, (2R,3R,4S,5S)-2-(4-Amino-7H-pyrrolo[2,3-d]pyrimidin-7-yl)-5-((((1-methyl-4-phenyl-1H-pyrazol-5-yl)methyl)thio)methyl)tetrahydrofuran-3,4-diol]	7.00 to 7.52
Cc1noc(-c2ccccc2)c1CSC[C@H]1O[C@@H](n2cc(CCc3ccccc3)c3c(N)ncnc32)[C@H](O)[C@@H]1O [Compound 184, (2R,3R,4S,5S)-2-(4-Amino-5-phenethyl-7H-pyrrolo[2,3-d]pyrimidin-7-yl)-5-((((3-methyl-5-phenylisoxazol-4-yl)methyl)thio)methyl)tetrahydrofuran-3,4-diol]	6.30 to 7.00
Cc1noc(-c2ccccc2)c1CSC[C@H]1O[C@@H](n2nc(-c3cccc(C#N)c3)c3c(N)ncnc32)[C@H](O)[C@@H]1O [Compound 220b, 3-(4-Amino-1-((2R,3R,4S,5S)-3,4-dihydroxy-5-((((3-methyl-5-phenylisoxazol-4-yl)methyl)thio)methyl)tetrahydrofuran-2-yl)-1H-pyrazolo[3,4-d]pyrimidin-3-yl)benzonitrile]	6.30 to 7.00
Cc1noc(-c2ccccc2)c1CSC[C@H]1O[C@@H](n2cc(-c3ccnn3C)c3c(N)ncnc32)[C@H](O)[C@@H]1O [Compound 154]	7.00 to 7.52
